Source: patent publication US12233140B2, “Hyperbranched polyglycerol-coated particles and methods of making and using thereof” (priority 2014, dated 2025)

Assays:
[1] = Retention of IR-780 loaded NPs in the peritoneal cavity after IP administration (live imaging); details: free dye control
Protocol: Six BALB/c nude mice were divided into 2 groups, 3 mice per group. […] Each mouse received 100 μL NP suspensions. The fluorescence was monitored with live imaging (Xenogen Corp., Alameda, CA) over time. The quantification of fluorescence retained in intraperitoneal cavity over time was determined.
Each mouse received 100 μL of the nanoparticle suspension at 10 mg/mL. The fluorescence was monitored with live imaging (Xenogen, Alameda, CA) over time.

[2] = Retention profile of EB in peritoneal cavity after IP injection (HPLC); details: 6 hr after a single IP dose, EB 2.5 mg/kg
Protocol: C57BL/6 mice (5-6 weeks old, Charles River Laboratories) were divided into three groups with 9 mice per group and one group with 3 mice. The group with 3 mice was used as a vehicle control. […] At each time point (6 hr, 1 d and 3 d), 3 mice from each group and one mouse from the 3-animal vehicle control group were euthanized and the peritoneal cavities washed with 5 mL acetonitrile for 3 times. The acetonitrile samples were centrifuged and the supernatant was collected and processed for HPLC analysis. EB concentration was determined with HPLC with C18 column with methanol/water (7:3) with UV detector set at 240 nm absorbance.

[3] = tested on: i.p. USC tumors (USC-ARK-2 xenografts); experiment: Survival and body weight of nude mice bearing intraperitoneal USC tumors, IP treatment; type: in vivo
Protocol: Forty BALB/c Nude mice (5-6 weeks old, Charles River Laboratories) were intraperitoneally injected with 1×10^6 UPSC cells. After 1 week, drug treatments were started with PBS control, blank PLA-HPGALD control and 3 EB formulations. […] Treatments were administrated intraperitoneally with a dose of EB (0.5 mg/kg) every week for 5 weeks. The body weights of the mice were measured twice a week. Animals were euthanized when the body weight loss exceeded 20%, or when other signals of sickness, such as breathing problems, failure to eat and drink, lethargy or abnormal posture, were observed.
BALB/c Nude mice (5-6 weeks old, Charles River Laboratories) were intraperitoneally injected with 1×10^6 USC cells. After 1 week, drug treatments were started with 8 animals in each group. […] In this experiment, treatments were administrated intraperitoneally with a 2.5 mg/kg dose of EB every week for 3 weeks. In another experiment, five groups were compared as described in Example 11.
The body weights of the mice were measured as described in Example 11.

[4] = tested on: uterine papillary serous carcinoma (UPSC) cells; experiment: In vitro cytotoxicity on UPSC cells, 72 h (Cell Titer Blue); type: cell-based; details: 3 days
Protocol: UPSC cells (180 μL) were plated in each well of a 96 well plate at a density of 2,000/well and left in a 37° C. incubator overnight. […] The cells were incubated for 72 h and cell viability was quantified with Cell Titer Blue.

Row | Compound | time to complete clearance from the IP cavity [1] | EB retained in the peritoneal cavity [2] | animals surviving to 110 days ([3]; EB 0.5 mg/kg) | body weight ([3]; EB 2.5 mg/kg) | death due to toxicity ([3]; EB 2.5 mg/kg) | survival compared with PBS ([3]; EB 2.5 mg/kg IP weekly for 3 weeks) | toxicity (weight loss, diarrhea, bowel dilation) ([3]; FIG. 18B) | survival compared with PBS ([3]; five-group experiment, EB 0.5 mg/kg IP weekly for 5 weeks) | in vitro cytotoxicity against UPSC cells [4]
1 | CCCN1C(=CC=C2CCCC(C=CC3=[N+](CCC)c4ccccc4C3(C)C)=C2Cl)C(C)(C)c2ccccc21.[I-] [Free dye, IR-780 iodide] | less than 4 hours | – | – | – | – | – | – | – | –
2 | C/C(=C\c1csc(C)n1)[C@@H]1C[C@@H]2O[C@]2(C)CCC[C@H](C)[C@H](O)[C@@H](C)C(=O)C(C)(C)[C@@H](O)CC(=O)O1 [free EB, epothilone B] | – | No EB was detected | approximately 10% | weight loss | early death due to EB toxicity | only mice treated with the lower dosage showed significance | significant toxicity | showed significance | highest toxicity
